The test system of one assay is BCR-FMS BaF3 cells. The assay can be described thus: Splenomegaly mouse model, BCR-FMS BaF3 cells. In kind it is in vivo. The note with it: dosed once per day at 10 mg per kg. As for the experimental part: BaF3 cells are engineered with any of BCR-FMS, BCR-TRK1 or BCR-TRK2 to assess in vivo inhibitory effects of Fms, TrkA or TrkB inhibition, respectively. BaF3 cells are maintained in growth media (RPMI containing 10% FBS, 1% PenStrep, 1% NEAA, and 1% L-Glutamine, supplemented with 5% murine IL-3 and 1 mg/mL G418). Four days prior to start, 2×10^6 cells are inoculated into a T150 vented flask using the growth media and incubated at 37° C. in 5% CO2 for three days. One day prior to start, cells are collected by centrifugation and are suspended in growth media without IL-3. On the day of cell implant, the cells are collected by centrifugation, rinsed 3×20 mL with RPMI, then are suspended in 5.4 mL of media and counted, then adjusted with additional RPMI as needed to give 5×10^7 cells/mL. On day 1, female nu/nu mice at 5-6 weeks of age are injected intravenously with BaF3 cells injected injecting 0.1 mL (5×10^6) cells in the tail vein (mice without cell injected are included as control group). Compound stocks in dimethylsulfoxide are stored at room temperature protected from light. Stocks are diluted prior to dosing, diluting 22 μL of compound stock into 858 μL of diluent (or 50 μL into 1950 μL) to provide vehicle of 1.0% Polysorbate 80, 0.5% hydroxypropyl methyl cellulose, with final dimethylsulfoxide at 2.5% in all dosing suspensions and vehicle control. Dosing suspension is prepared prior to use, mixing by inversion and sonication in a water bath to make a uniform suspension. On days 10-18, mice are treated with vehicle only or the desired level of compound in vehicle, ˜0.2 mL per 25 gm mouse, once a day by oral gavage, or in some instances, twice per day. On day 18, mice are administered a final dose and two hours later a plasma sample is taken. At four hours following the final dose, mice are sacrificed, an additional plasma sample is collected and mouse spleens are removed and weighed. The average spleen weight of vehicle control group mice is compared to the average spleen weight of the test compound mice. Percent spleen growth inhibition is calculated as 100×[(spleen weight vehicle control-spleen weight test compound)/spleen weight vehicle control]. In some instances, the compounds were not tested in all of the assays as indicated by NA in the table below.

Another assay concerns the target CYP3A4(BQ) (Homo sapiens, UniProt P08684). As to the kind of experiment: CYP3A4(BQ) inhibition. In kind it is in vitro ADME. The settings on record: CYP3A4, substrate BQ; read-out: Cyp IC50 3A4(BQ). In short, it runs like this: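 After 30 min incubation at 37° C, plates were read on a Tecan Safire 2 at 409 ex/460 em, and IC50 values came from signal plotted against compound concentration. Enzyme and substrate were sourced from BD Biosciences. The cofactor mix held 1.3% NADPH Regeneration system Solution A, 1.04% Solution B, 5% acetonitrile and 0.05% DMSO.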

pIC50: −log10 of the molar value. A value given as a limit tells only on which side of the number the result lay.

CYP3A4(BQ), sequence (P08684 whole entry): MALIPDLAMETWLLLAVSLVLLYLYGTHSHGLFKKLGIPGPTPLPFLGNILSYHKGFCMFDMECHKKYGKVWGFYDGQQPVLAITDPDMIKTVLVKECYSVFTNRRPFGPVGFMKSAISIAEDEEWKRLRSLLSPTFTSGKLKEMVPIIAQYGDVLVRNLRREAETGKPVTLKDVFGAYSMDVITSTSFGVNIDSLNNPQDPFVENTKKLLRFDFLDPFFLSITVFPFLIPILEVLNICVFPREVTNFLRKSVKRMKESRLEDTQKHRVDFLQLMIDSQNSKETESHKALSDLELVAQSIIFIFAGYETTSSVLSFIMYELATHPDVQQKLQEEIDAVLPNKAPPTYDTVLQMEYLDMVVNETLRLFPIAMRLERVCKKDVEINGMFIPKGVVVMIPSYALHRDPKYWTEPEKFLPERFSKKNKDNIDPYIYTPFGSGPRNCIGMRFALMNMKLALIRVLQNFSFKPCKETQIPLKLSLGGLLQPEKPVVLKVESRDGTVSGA

With `FC1(F)CCC(Nc2ncc(Cc3c[nH]c4ncc(Cl)cc34)cn2)CC1` [Compound P-3004], the “% spleen growth inhibition, Fms” value with BCR-FMS BaF3 cells amounted to 43%. Moreover, at CYP3A4(BQ), the pIC50 is less than 5.00.
On to `CCOc1ccc(Nc2ccc(C(=O)c3c[nH]c4ncc(C)cc34)c(F)n2)cn1` [Compound P-3045, [6-(6-ethoxy-pyridin-3-ylamino)-2-fluoro-pyridin-3-yl]-(5-methyl-1H-pyrrolo[2,3-b]pyridin-3-yl)-methanone], for which the “% spleen growth inhibition, Fms” value in the assay on BCR-FMS BaF3 cells was determined as 11%.
Take `CCOc1ncnc2[nH]cc(Cc3ccc(Nc4cnn(CC)c4)nc3F)c12` [Compound P-4012, [5-(4-Ethoxy-7H-pyrrolo[2,3-d]pyrimidin-5-ylmethyl)-6-fluoro-pyridin-2-yl]-(1-ethyl-1H-pyrazol-4-yl)-amine]: the “% spleen growth inhibition, Fms” value with BCR-FMS BaF3 cells came to 24%. Further, the pIC50 on CYP3A4(BQ) is less than 5.00.
Regarding `COc1ccc(Nc2ccc(Cc3c[nH]c4ncnc(C5CC5)c34)c(F)n2)cn1` [Compound P-4023, [5-(4-cyclopropyl-7H-pyrrolo[2,3-d]pyrimidin-5-ylmethyl)-6-fluoro-pyridin-2-yl]-(6-methoxy-pyridin-3-yl)-amine], the pIC50 at CYP3A4(BQ) is less than 5.00.
As for `CCOc1ccc(Nc2ccc(C(=O)c3c[nH]c4ncnc(OC)c34)c(F)n2)cn1` [Compound P-4024, [6-(6-Ethoxy-pyridin-3-ylamino)-2-fluoro-pyridin-3-yl]-(4-methoxy-7H-pyrrolo[2,3-d]pyrimidin-5-yl)-methanone], the pIC50 on CYP3A4(BQ) is less than 5.00.
With `CCOc1ncnc2[nH]cc(C(=O)c3ccc(Nc4ccc(OC)nc4)nc3F)c12` [Compound P-4025, (4-Ethoxy-7H-pyrrolo[2,3-d]pyrimidin-5-yl)-[2-fluoro-6-(6-methoxy-pyridin-3-ylamino)-pyridin-3-yl]-methanone], at CYP3A4(BQ), the pIC50 was less than 5.00.
Consider `CCOc1ccc(Nc2ccc(Cc3c[nH]c4ncnc(C5CC5)c34)c(F)n2)cn1` [Compound P-4026, [5-(4-Cyclopropyl-7H-pyrrolo[2,3-d]pyrimidin-5-ylmethyl)-6-fluoro-pyridin-2-yl]-(6-ethoxy-pyridin-3-yl)-amine], for which the “% spleen growth inhibition, Fms” value in the assay on BCR-FMS BaF3 cells came out at 41%.
Still for that read-out and setting: in the case of `CCOc1ccc(Nc2ccc(C(=O)c3c[nH]c4ncnc(C5CC5)c34)c(F)n2)cn1` [Compound P-4027, (4-Cyclopropyl-7H-pyrrolo[2,3-d]pyrimidin-5-yl)-[6-(6-ethoxy-pyridin-3-ylamino)-2-fluoro-pyridin-3-yl]-methanone] it was −1.4%.
Regarding `CCc1ccc(Nc2ccc(C(=O)c3c[nH]c4ncnc(C5CC5)c34)c(F)n2)cn1` [Compound P-4029, (4-Cyclopropyl-7H-pyrrolo[2,3-d]pyrimidin-5-yl)-[6-(6-ethyl-pyridin-3-ylamino)-2-fluoro-pyridin-3-yl]-methanone], the “% spleen growth inhibition, Fms” value in the assay on BCR-FMS BaF3 cells was determined as 66%. Further, at CYP3A4(BQ), the pIC50 is less than 5.00.
In the case of `Cc1ccc(Nc2ccc(C(=O)c3c[nH]c4ncnc(C5CC5)c34)c(F)n2)cn1` [Compound P-4031, (4-Cyclopropyl-7H-pyrrolo[2,3-d]pyrimidin-5-yl)-[2-fluoro-6-(6-methyl-pyridin-3-ylamino)-pyridin-3-yl]-methanone], the “% spleen growth inhibition, Fms” value in the assay with BCR-FMS BaF3 cells is given as 29%. On CYP3A4(BQ), the pIC50 was less than 5.00.
Take `CCn1cc(Nc2ccc(Cc3c[nH]c4ncnc(C5CC5)c34)c(F)n2)cn1` [Compound P-4036, [5-(4-Cyclopropyl-7H-pyrrolo[2,3-d]pyrimidin-5-ylmethyl)-6-fluoro-pyridin-2-yl]-(1-ethyl-1H-pyrazol-4-yl)-amine]: on CYP3A4(BQ), the pIC50 was 5.00 to 5.30.
The same measure, in the same setting: in the case of `CCn1cc(Nc2ccc(C(=O)c3c[nH]c4ncnc(C5CC5)c34)c(F)n2)cn1` [Compound P-4037, (4-Cyclopropyl-7H-pyrrolo[2,3-d]pyrimidin-5-yl)-[6-(1-ethyl-1H-pyrazol-4-ylamino)-2-fluoro-pyridin-3-yl]-methanone] it was 5.00 to 5.30; in that of `Fc1nc(NC2CCC(F)(F)CC2)ccc1Cc1c[nH]c2ncnc(NC3CC3)c12` [Compound P-4129, N-cyclopropyl-5-[[6-[(4,4-difluorocyclohexyl)amino]-2-fluoro-3-pyridyl]methyl]-7H-pyrrolo[2,3-d]pyrimidin-4-amine], greater than 5.30.
